Experimental data published in patent publication US20230145305A1, “COMPOUNDS USEFUL AS KINASE INHIBITORS” (Fochon Biosciences, Ltd., priority 2020, published 2023).

What was measured:
BTK (C481S) = target: T1, BTK (C481S) (Homo sapiens, UniProt Q06187, C481S); experiment: Kinase assay of BTK (C481S), [33P]-ATP filter-binding, Reaction Biology Corporation; type: biochemical; conditions: 6 nM BTK (C481S), 0.2 mg/ml pEY substrate, 10 μM ATP, 20 min preincubation, 120 min reaction at room temperature
T1 construct: purchased SignalChem B10-12CH
T1 sequence (Q06187 whole entry C481S): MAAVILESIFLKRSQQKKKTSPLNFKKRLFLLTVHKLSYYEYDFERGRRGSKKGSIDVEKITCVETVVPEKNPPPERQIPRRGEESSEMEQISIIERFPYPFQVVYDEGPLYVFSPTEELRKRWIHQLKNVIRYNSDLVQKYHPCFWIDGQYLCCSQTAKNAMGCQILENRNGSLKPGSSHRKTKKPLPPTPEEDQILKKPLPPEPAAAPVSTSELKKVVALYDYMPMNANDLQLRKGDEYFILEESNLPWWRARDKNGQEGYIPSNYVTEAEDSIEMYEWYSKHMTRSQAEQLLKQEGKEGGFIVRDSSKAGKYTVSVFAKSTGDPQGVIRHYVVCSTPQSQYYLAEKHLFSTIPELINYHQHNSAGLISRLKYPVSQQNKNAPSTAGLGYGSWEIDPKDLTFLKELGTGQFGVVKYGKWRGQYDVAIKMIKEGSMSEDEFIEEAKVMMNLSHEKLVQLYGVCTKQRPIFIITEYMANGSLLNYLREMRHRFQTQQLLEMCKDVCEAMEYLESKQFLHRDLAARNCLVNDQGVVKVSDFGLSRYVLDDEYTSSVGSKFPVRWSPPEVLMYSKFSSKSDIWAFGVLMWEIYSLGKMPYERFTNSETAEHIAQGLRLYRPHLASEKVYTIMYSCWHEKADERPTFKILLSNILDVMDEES
Method: The kinase activity of BTK (C481S) was assayed at Reaction Biology Corporation. The substrate in the BTK (C481S) reaction, pEY (poly[Glu:Tyr] (4:1)) (Sigma, Cat. #P7244-250MG), was prepared in fresh reaction buffer (20 mM Hepes (pH 7.5), 10 mM MgCl2, 1 mM EGTA, 0.02% Brij35, 0.02 mg/mi BSA, 0.1 mM Na3VO4, 2 mM DTT, 1% DMSO). BTK(C481S) (SignalChem, Cat. #B10-12CH) was delivered into the substrate solution and mixed gently. The final concentrations of BTK (C481S) and the substrate in the reaction mixture were 6 nM and 0.2 mg/ml, respectively. Compounds were tested in 10-point concentration/response mode with 3-fold serial dilution steps starting at 1 μM.
Compounds in 100% DMSO were delivered into the kinase reaction mixture by acoustic liquid delivery technology (Echo550; nanoliter range) and incubated for 20 min at room temperature. 10 μM [^33P]-ATP (ATP: Sigma, Cat #: A7699; [^33P]-ATP: Hartmann Analytic, Cat #: SCF-301-12) was delivered into the reaction mixture to initiate the reaction. The mixture was incubated for 120 min at room temperature. Radioactivity was detected utilizing a proprietary filter-binding method. Kinase activity data were expressed as the percent remaining kinase activity in test samples compared to vehicle (DMSO) reactions. IC50 values were obtained using GraphPad Prism software.
Select compounds prepared as described above were assayed according to the biological procedures described herein.

OCI-LY10 cells = experiment: Cell proliferation assay (MTS) in OCI-LY10 cells; type: cell-based; conditions: Homo sapiens; inhibition of OCI-LY10 cells proliferation, 72 h incubation, MTS, absorbance at 490 nm; read-out: OCI-LY10 IC50
How it was run: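 BTK-dependent OCI-LY10 proliferation: cells seeded at 10000/well, preincubated 4 h, then compound exposure 72 h at 37° C., 5% CO2. MTS added for 2 h and absorbance read at 490 nm; IC50 derived from the concentration-response.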

SMILES | IC50 (BTK (C481S)) | IC50 (OCI-LY10 cells)
COc1ccccc1C(=O)NCc1ccc(-n2nc(C3CCCC3)c3c(=O)[nH]nc(N)c32)cc1 [Example 2, N-(4-(7-amino-3-cyclopentyl-4-oxo-4,5-dihydro-1H-pyrazolo[3,4-d]pyridazin-1-yl)benzyl)-2-methoxybenzamide] | 3.3 nM | 34 nM
COc1ccc(F)cc1C(=O)NCc1ccc(-c2nn([C@H]3CCC[C@H]3F)c3c(=O)[nH]nc(N)c23)cc1 [Example 81, N-(4-(4-amino-1-((1S,2R)-2-fluorocyclopentyl)-7-oxo-6,7-dihydro-1H-pyrazolo[3,4-d]pyridazin-3-yl)benzyl)-5-fluoro-2-methoxybenzamide] | 0.91 nM | 1 nM
COc1ccccc1C(=O)NCc1ccc(-c2nc(C3CCCC3)n3ccnc(N)c23)cc1 [Example 7, N-(4-(8-amino-3-cyclopentylimidazo[1,5-a]pyrazin-1-yl)benzyl)-2-methoxybenzamide] | 3 nM | 
COc1ccccc1C(=O)NCc1ccc(-c2nc(C3CCCC3)n3ncnc(N)c23)cc1 [Example 6, N-(4-(4-amino-7-cyclopentylimidazo[5,1-f][1,2,4]triazin-5-yl)benzyl)-2-methoxybenzamide] | 7.8 nM | 
COc1ccc(F)cc1C(=O)NCc1ccc(-c2nn(C3CCCC3)c3c(=O)[nH]nc(N)c23)cc1 [Example 11, N-(4-(4-amino-1-cyclopentyl-7-oxo-6,7-dihydro-1H-pyrazolo[3,4-d]pyridazin-3-yl)benzyl)-5-fluoro-2-methoxybenzamide] | 0.5 nM | 1 nM
COc1ccc(F)cc1C(=O)NCc1ccc(-c2cn(C3CCCC3)c3c(=O)[nH]nc(N)c23)cc1 [Example 17, N-(4-(4-amino-1-cyclopentyl-7-oxo-6,7-dihydro-1H-pyrrolo[2,3-d]pyridazin-3-yl)benzyl)-5-fluoro-2-methoxybenzamide] | 0.5 nM | 1 nM
COc1ccc(F)cc1C(=O)NCc1ccc(-n2cc(C3CCCC3)c3c(=O)[nH]nc(N)c32)cc1 [Example 8, N-(4-(7-amino-3-cyclopentyl-4-oxo-4,5-dihydro-1H-pyrrolo[2,3-d]pyridazin-1-yl)benzyl)-5-fluoro-2-methoxybenzamide] | 0.45 nM | 1 nM
COc1ccccc1C(=O)NCc1ccc(-n2cc(C3CCCC3)c3c(=O)[nH]nc(N)c32)cc1 [Example 1, N-(4-(7-amino-3-cyclopentyl-4-oxo-4,5-dihydro-1H-pyrrolo[2,3-d]pyridazin-1-yl)benzyl)-2-methoxybenzamide] | 5 nM | 28 nM
COc1ccc(F)cc1C(=O)NCc1ccc(-c2nn(C3(CF)CC3)c3c(=O)[nH]nc(N)c23)cc1 [Example 82, N-(4-(4-amino-1-(1-(fluoromethyl)cyclopropyl)-7-oxo-6,7-dihydro-1H-pyrazolo[3,4-d]pyridazin-3-yl)benzyl)-5-fluoro-2-methoxybenzamide] |  | 3 nM
COc1cc(F)c(F)cc1C(=O)NCc1ccc(-c2cn(C3CCCC3)c3c(=O)[nH]nc(N)c23)cc1 [Example 79, N-(4-(4-amino-1-cyclopentyl-7-oxo-6,7-dihydro-1H-pyrrolo[2,3-d]pyridazin-3-yl)benzyl)-4,5-difluoro-2-methoxybenzamide] |  | 50 nM
COc1ccc(F)cc1C(=O)NCc1ccc(-c2nn(C3(C(F)F)CC3)c3c(=O)[nH]nc(N)c23)cc1 [Example 84, N-(4-(4-amino-1-(1-(difluoromethyl)cyclopropyl)-7-oxo-6,7-dihydro-1H-pyrazolo[3,4-d]pyridazin-3-yl)benzyl)-5-fluoro-2-methoxybenzamide] |  | 4 nM
COc1ccccc1C(=O)NCc1ccc(-c2nn(C3CCCC3)c3c(=O)[nH]nc(N)c23)cc1 [Example 5, N-(4-(4-amino-1-cyclopentyl-7-oxo-6,7-dihydro-1H-pyrazolo[3,4-d]pyridazin-3-yl)benzyl)-2-methoxybenzamide] | 8 nM | 68 nM
COc1ccc(F)cc1C(=O)NCc1ccc(-n2c(=O)n(C3CCCC3)c3c(=O)[nH]nc(N)c32)cc1 [Example 60, N-(4-(7-amino-3-cyclopentyl-2,4-dioxo-2,3,4,5-tetrahydro-1H-imidazo[4,5-d]pyridazin-1-yl)benzyl)-5-fluoro-2-methoxybenzamide] |  | 30 nM
COc1ccc(F)cc1C(=O)NCc1ccc(-c2nn([C@@H](C)C(F)(F)F)c3c(=O)[nH]nc(N)c23)cc1 [Example 40a, (S)-N-(4-(4-amino-7-oxo-1-(1,1,1-trifluoropropan-2-yl)-6,7-dihydro-1H-pyrazolo[3,4-d]pyridazin-3-yl)benzyl)-5-fluoro-2-methoxybenzamide] |  | 7 nM
COc1ccc(F)cc1C(=O)NCc1ccc(-c2nn([C@H]3CCCC3(F)F)c3c(=O)[nH]nc(N)c23)cc1 [Example 64, (S)-N-(4-(4-amino-1-(2,2-difluorocyclopentyl)-7-oxo-6,7-dihydro-1H-pyrazolo[3,4-d]pyridazin-3-yl)benzyl)-5-fluoro-2-methoxybenzamide] |  | 1 nM
COc1ccccc1C(=O)NCc1ccc(-c2cn(C3CCCC3)c3c(=O)[nH]nc(N)c23)cc1 [Example 4, N-(4-(4-amino-1-cyclopentyl-7-oxo-6,7-dihydro-1H-pyrrolo[2,3-d]pyridazin-3-yl)benzyl)-2-methoxybenzamide] | 6.5 nM | 69 nM
COc1ccc(F)cc1C(=O)NCc1ccc(-c2cn(C3CCCC3)c3c(=O)[nH]nc(N)c23)cc1F [Example 30, N-(4-(4-amino-1-cyclopentyl-7-oxo-6,7-dihydro-1H-pyrrolo[2,3-d]pyridazin-3-yl)-2-fluorobenzyl)-5-fluoro-2-methoxybenzamide] |  | 1 nM
